Patent publication US9815796B2 (Merck Sharp & Dohme Corp., priority 2013, dated 2017)
Read-outs that look alike come from different tables or passages of the source.

How the values were obtained:
[1] = target: Rhesus PDE2A3 (Macaca mulatta, UniProt B3VTJ2); assay: PDE2 fluorescence polarization (IMAP FP) inhibition assay, rhesus enzyme; type: biochemical, rhesus macaque
In short: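 IMAP FP (mP from parallel and perpendicular fluorescence against substrate-only control) was read ≥1 h after adding binding reagent. The preceding 60 min room-temperature reaction contained FAM-cAMP (50 nM) and cGMP (1 uM) in pH 7.2 Tris buffer with MgCl2 and DTT. Enzyme was supernatant of sonicated AD293 cells expressing rhesus PDE2A3; compounds were 3-fold titrated, DMSO 1% final.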

[2] = target: human PDE2A1 (Homo sapiens (Human), UniProt O00408); assay: IMAP FP PDE selectivity panel, human PDE2A1; type: biochemical
In short: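 IMAP FP format: substrate 50 nM FAM-cAMP plus 1000 nM cGMP, enzyme (insect-cell GST-tagged human PDE2A1) at ~20% conversion, 60 min reaction at room temperature. Apparent inhibition constants calculated from parallel/perpendicular fluorescence with KM 10,000 nM.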

[3] = Rhesus PDE2, Lab B, read-out: Rhesus PDE2 Ki (nM) - Lab B
[4] = Human PDE2, Lab B, read-out: Human PDE2 Ki (nM) - Lab B
[5] = Rhesus PDE2, Lab A, read-out: Rhesus PDE2 Ki (nM) - Lab A
[6] = Human PDE2, Lab A, read-out: Human PDE2 Ki (nM) - Lab A

Sequence of human PDE2A1 (O00408 other isoform, or with tags, fused parts or gaps): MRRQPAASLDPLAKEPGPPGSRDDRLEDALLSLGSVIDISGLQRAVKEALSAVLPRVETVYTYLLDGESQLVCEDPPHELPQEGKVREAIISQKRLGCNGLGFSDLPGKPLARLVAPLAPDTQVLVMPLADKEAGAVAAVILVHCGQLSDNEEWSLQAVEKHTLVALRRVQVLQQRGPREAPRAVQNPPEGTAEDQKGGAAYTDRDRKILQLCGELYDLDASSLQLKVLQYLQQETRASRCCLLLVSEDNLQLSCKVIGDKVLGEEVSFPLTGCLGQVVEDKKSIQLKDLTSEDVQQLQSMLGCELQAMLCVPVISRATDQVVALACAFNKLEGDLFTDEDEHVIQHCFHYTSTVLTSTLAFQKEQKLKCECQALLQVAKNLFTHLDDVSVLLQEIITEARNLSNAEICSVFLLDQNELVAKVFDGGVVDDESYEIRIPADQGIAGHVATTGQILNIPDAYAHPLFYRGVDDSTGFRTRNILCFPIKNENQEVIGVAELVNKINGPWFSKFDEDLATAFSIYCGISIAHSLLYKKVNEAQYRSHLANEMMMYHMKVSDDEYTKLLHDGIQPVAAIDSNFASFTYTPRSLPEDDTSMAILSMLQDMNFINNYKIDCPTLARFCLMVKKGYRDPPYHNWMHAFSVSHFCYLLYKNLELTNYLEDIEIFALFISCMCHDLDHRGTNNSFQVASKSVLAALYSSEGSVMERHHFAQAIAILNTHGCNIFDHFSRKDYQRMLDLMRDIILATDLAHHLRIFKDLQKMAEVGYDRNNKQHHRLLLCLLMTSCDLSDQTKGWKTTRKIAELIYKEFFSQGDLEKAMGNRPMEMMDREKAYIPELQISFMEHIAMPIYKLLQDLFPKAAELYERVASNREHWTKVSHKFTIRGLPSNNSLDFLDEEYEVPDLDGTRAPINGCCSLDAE
Sequence of Rhesus PDE2A3 (B3VTJ2 1-941): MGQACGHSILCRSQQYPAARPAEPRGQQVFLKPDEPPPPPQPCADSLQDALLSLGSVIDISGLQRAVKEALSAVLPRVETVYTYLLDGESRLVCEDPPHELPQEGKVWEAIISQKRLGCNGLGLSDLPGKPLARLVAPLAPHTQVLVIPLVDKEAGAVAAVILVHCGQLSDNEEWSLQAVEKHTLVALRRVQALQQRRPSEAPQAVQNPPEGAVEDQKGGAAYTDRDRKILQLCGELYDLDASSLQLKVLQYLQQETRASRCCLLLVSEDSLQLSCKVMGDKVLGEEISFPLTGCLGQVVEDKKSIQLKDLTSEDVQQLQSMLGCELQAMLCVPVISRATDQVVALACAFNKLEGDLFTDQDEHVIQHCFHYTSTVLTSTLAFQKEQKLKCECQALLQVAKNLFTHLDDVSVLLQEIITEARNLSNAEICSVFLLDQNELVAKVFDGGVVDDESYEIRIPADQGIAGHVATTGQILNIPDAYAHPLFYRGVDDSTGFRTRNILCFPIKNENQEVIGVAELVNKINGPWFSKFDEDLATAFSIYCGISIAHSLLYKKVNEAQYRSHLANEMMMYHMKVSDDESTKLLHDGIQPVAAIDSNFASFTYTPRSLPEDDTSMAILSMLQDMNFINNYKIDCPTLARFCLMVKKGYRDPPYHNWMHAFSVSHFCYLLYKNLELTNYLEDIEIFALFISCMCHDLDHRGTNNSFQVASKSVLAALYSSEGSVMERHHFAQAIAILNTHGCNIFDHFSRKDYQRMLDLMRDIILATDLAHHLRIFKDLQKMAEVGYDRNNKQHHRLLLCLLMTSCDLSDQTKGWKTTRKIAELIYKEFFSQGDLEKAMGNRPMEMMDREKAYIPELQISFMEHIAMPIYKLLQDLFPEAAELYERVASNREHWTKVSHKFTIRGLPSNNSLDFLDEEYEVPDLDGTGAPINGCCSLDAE

In the case of `CC[C@@H](NC(=O)c1cc(=O)[nH]c(Cc2ccc(OC)c(F)c2)n1)c1ccc(C(F)(F)F)c(F)c1` [Example 527, 2-(3-fluoro-4-methoxybenzyl)-N-{(1R)-1-[3-fluoro-4-(trifluoromethyl)phenyl]propyl}-6-oxo-1,6-dihydropyrimidine-4-carboxamide], the Ki [1, 3] is reported as 3.1 nM and the Ki [2, 4] is reported as 3 nM.
In the case of `CC1Cc2cc(C(C)NC(=O)c3cc(=O)[nH]c(-c4ccccc4)n3)ccc2O1` (centres unmarked) [Example 379, N-[1-(2-methyl-2,3-dihydro-1-benzofuran-5-yl)ethyl]-6-oxo-2-phenyl-1,6-dihydropyrimidine-4-carboxamide], the Ki [1, 5] is reported as 69 nM and the Ki [2, 4] is reported as 114 nM.
`O=C(N[C@@H](c1ccc(SC(F)(F)F)c(F)c1)C1CC1)c1cc(=O)[nH]c(-c2ccccc2)n1` [Example 417, N-[(R)-cyclopropyl{3-fluoro-4-[(trifluoromethyl)sulfanyl]phenyl}methyl]-6-oxo-2-phenyl-1,6-dihydropyrimidine-4-carboxamide] was tested, and the Ki [1, 3] was 12 nM and the Ki [2, 4] was 9.8 nM.
For `CC(C)(NC(=O)c1cc(=O)[nH]c(-c2ccccc2)n1)c1ccc(OC(F)(F)F)c(F)c1` [Example 161, N-{1-[3-fluoro-4-(trifluoromethoxy)phenyl]-1-methylethyl}-6-oxo-2-phenyl-1,6-dihydropyrimidine-4-carboxamide], the Ki [1, 5] was 88 nM and the Ki [2, 6] was 60 nM.
For `O=C(N[C@@H](c1ccc(OC(F)(F)F)cc1)C1CC1)c1cc(=O)[nH]c(-c2ccccc2)n1` [Example 175, N-{(R)-cyclopropyl[4-(trifluoromethoxy)phenyl]methyl}-6-oxo-2-phenyl-1,6-dihydropyrimidine-4-carboxamide], the Ki [1, 5] was 3.9 nM and the Ki [2, 6] was 3.9 nM.
`CCc1nc(C(=O)NC2(c3ccc(C(F)(F)F)c(F)c3)CC2)cc(=O)[nH]1` [Example 601, 2-ethyl-N-{1-[3-fluoro-4-(trifluoromethyl)phenyl]cyclopropyl}-6-oxo-1,6-dihydropyrimidine-4-carboxamide] gave a Ki [1, 3] of 8 nM and a Ki [2, 4] of 8.2 nM.
`O=C(N[C@@H](c1ccc(OC(F)(F)F)cc1)C1CC1)c1cc(=O)[nH]c(-c2ncccn2)n1` [Example 92, N-{(R)-cyclopropyl[4-(trifluoromethoxy)phenyl]methyl}-6-oxo-1,6-dihydro-2,2′-bipyrimidine-4-carboxamide] showed a Ki [1, 5] of 91 nM and a Ki [2, 6] of 21 nM.
For `COc1cc(CNC(=O)c2cc(=O)[nH]c(-c3ccccc3)n2)cc(OC)c1OC` [Example 338, 6-oxo-2-phenyl-N-(3,4,5-trimethoxybenzyl)-1,6-dihydropyrimidine-4-carboxamide], the Ki [1, 5] was 29 nM, the Ki [1, 3] was 71 nM and the Ki [2, 4] was 65 nM.
For `O=C(NC(CO)c1ccc(C(F)(F)F)cc1)c1cc(=O)[nH]c(C2CC2)n1` (centres unmarked) [Example 294, 2-cyclopropyl-N-{2-hydroxy-1-[4-(trifluoromethyl)phenyl]ethyl}-6-oxo-1,6-dihydropyrimidine-4-carboxamide], the Ki [1, 5] was 69 nM and the Ki [2, 6] was 46 nM.
Compound `CC[C@@H](NC(=O)c1cc(=O)[nH]c(COC)n1)c1ccc(OC(F)(F)F)c(F)c1` [Example 114, N-{(1R)-1-[3-fluoro-4-(trifluoromethoxy)phenyl]propyl}-2-(methoxymethyl)-6-oxo-1,6-dihydropyrimidine-4-carboxamide] has a Ki [1, 5] of 48 nM and a Ki [2, 6] of about 11 nM.
`Cc1nc(C(=O)N[C@H](C)c2ccc(C(F)(F)F)cc2F)cc(=O)[nH]1` [Example 19, N-{(1R)-1-[2-fluoro-4-(trifluoromethyl)phenyl]ethyl}-2-methyl-6-oxo-1,6-dihydropyrimidine-4-carboxamide] showed a Ki [1, 5] of 96 nM and a Ki [2, 6] of 81 nM.
With `O=C(N[C@@H](c1ccc(OC(F)F)cc1)C1CC1)c1cc(=O)[nH]c(C2CC2)n1` [Example 446, 2-cyclopropyl-N-{(R)-cyclopropyl[4-(difluoromethoxy)phenyl]methyl}-6-oxo-1,6-dihydropyrimidine-4-carboxamide] the Ki [1, 3] was 43 nM and the Ki [2, 4] was 42 nM.
With `COc1ccc([C@@H](C)NC(=O)c2cc(=O)[nH]c(-c3ncccn3)n2)cc1` [Example 86, N-[(1R)-1-(4-methoxyphenyl)ethyl]-6-oxo-1,6-dihydro-2,2′-bipyrimidine-4-carboxamide] the Ki [1, 5] was 237 nM and the Ki [2, 6] was 199 nM.
`O=C(NC1(c2ccc(SC(F)(F)F)c(F)c2)CC1)c1cc(=O)[nH]c(-c2ccccc2)n1` [Example 352, N-(1-{3-fluoro-4-[(trifluoromethyl)sulfanyl]phenyl}cyclopropyl)-6-oxo-2-phenyl-1,6-dihydropyrimidine-4-carboxamide] was tested, and the Ki [1, 5] was 15 nM, the Ki [1, 3] was 51 nM and the Ki [2, 4] was 54 nM.
In the case of `CC[C@@H](NC(=O)c1cc(=O)[nH]c(C)n1)c1ccc(OC(F)(F)F)cc1` [Example 31, 2-methyl-6-oxo-N-{(1R)-1-[4-(trifluoromethoxy)phenyl]propyl}-1,6-dihydropyrimidine-4-carboxamide], the Ki [1, 5] is reported as 28 nM and the Ki [2, 6] is reported as 15 nM.
Work on `CC(C)c1ccc([C@@H](C)NC(=O)c2cc(=O)[nH]c(C3CC3)n2)cc1` [Example 298, 2-cyclopropyl-N-{(1R)-1-[4-(1-methylethyl)phenyl]ethyl}-6-oxo-1,6-dihydropyrimidine-4-carboxamide] yielded a Ki [1, 5] of 18 nM and a Ki [2, 6] of 13 nM.
For `Cc1nc(C(=O)N[C@H](C)c2ccc(C(F)(F)F)cc2)cc(=O)[nH]1` [Example 13, 2-methyl-6-oxo-N-{(1R)-1-[4-(trifluoromethyl)phenyl]ethyl}-1,6-dihydropyrimidine-4-carboxamide], the Ki [1, 5] was 50 nM, the Ki [1, 3] was 48 nM and the Ki [2, 6] was 33 nM. For the same compound, the Ki [2, 4] was 48 nM.
Compound `C[C@@H](NC(=O)c1cc(=O)[nH]c(-c2ccccc2)n1)c1ccc(SC(F)(F)F)c(F)c1` [Example 398, N-[(1R)-1-{3-fluoro-4-[(trifluoromethyl)sulfanyl]phenyl}eth-yl]-6-oxo-2-phenyl-1,6-dihydropyrimidine-4-carboxamide] has a Ki [1, 3] of 2.9 nM and a Ki [2, 4] of 2.3 nM.
Work on `C[C@@H](NC(=O)c1cc(=O)[nH]c(-c2ccccc2)n1)c1cc(F)c(C(F)(F)F)c(F)c1` [Example 184, N-{(1R)-1-[3,5-difluoro-4-(trifluoromethyl)phenyl]ethyl}-6-oxo-2-phenyl-1,6-dihydropyrimidine-4-carboxamide] yielded a Ki [1, 5] of 20 nM and a Ki [2, 6] of 20 nM.
For `O=C(N[C@@H](c1ccc(C(F)(F)F)c(F)c1)C1CC1)c1cc(=O)[nH]c(-c2ccccc2)n1` [Example 174, N-{(R)-cyclopropyl[3-fluoro-4-(trifluoromethyl)phenyl]methyl}-6-oxo-2-phenyl-1,6-dihydropyrimidine-4-carboxamide], the Ki [1, 5] was 5.7 nM and the Ki [2, 6] was 4.5 nM.
`CC[C@@H](NC(=O)c1cc(=O)[nH]c(-c2ccccc2)n1)c1ccc(C(F)(F)F)c(F)c1` [Example 420, N-{(1R)-1-[3-fluoro-4-(trifluoromethyl)phenyl]propyl}-6-oxo-2-phenyl-1,6-dihydropyrimidine-4-carboxamide] showed a Ki [1, 3] of 7.3 nM and a Ki [2, 4] of 5.9 nM.
For `Cc1nc(C(=O)NC(C)c2ccc(C(C)C)cc2)cc(=O)[nH]1` (single isomer, unassigned) [Example 305, (R)- or (S)-2-methyl-N-{1-[4-(1-methylethyl)phenyl]ethyl}-6-oxo-1,6-dihydropyrimidine-4-carboxamide], the Ki [1, 5] was 26 nM and the Ki [2, 6] was 20 nM.
Compound `CC1(c2ccc(C(NC(=O)c3cc(=O)[nH]c(-c4ncccn4)n3)C(C)(C)C)cc2F)CC1` (single isomer, unassigned) [Example 717, (R)- or (S)-N-(1-(3-fluoro-4-(1-methylcyclopropyl)phenyl)-2,2-dimethylpropyl)-6-oxo-1,6-dihydro-[2,2′-bipyrimidine]-4-carboxamide] has a Ki [1, 3] of 17 nM and a Ki [2, 4] of 14 nM.
In the case of `Cc1nc(C(=O)NC2(c3ccc(OC(F)(F)F)c(F)c3)CC2)cc(=O)[nH]1` [Example 67, N-{1-[3-fluoro-4-(trifluoromethoxy)phenyl]cyclopropyl}-2-methyl-6-oxo-1,6-dihydropyrimidine-4-carboxamide], the Ki [1, 5] is reported as 16 nM, the Ki [1, 3] is reported as 19 nM and the Ki [2, 6] is reported as about 9.6 nM. It also gave a Ki [2, 4] of 12 nM.
`CC[C@@H](NC(=O)c1cc(=O)[nH]c(COC)n1)c1ccc(OC(F)(F)F)cc1` [Example 119, 2-(methoxymethyl)-6-oxo-N-{(1R)-1-[4-(trifluoromethoxy)phenyl]propyl}-1,6-dihydropyrimidine-4-carboxamide] was tested, and the Ki [1, 5] was 74 nM, the Ki [1, 3] was 53 nM and the Ki [2, 6] was 17 nM.
`CC[C@@H](NC(=O)c1cc(=O)[nH]c(-c2ccccc2)n1)c1ccc(SC(F)(F)F)c(F)c1` [Example 385, N-[(1R)-1-{3-fluoro-4-[(trifluoromethyl)sulfanyl]phenyl}pro-pyl]-6-oxo-2-phenyl-1,6-dihydropyrimidine-4-carboxamide] gave a Ki [1, 3] of 7 nM and a Ki [2, 4] of 4.4 nM.
`C[C@@H](NC(=O)c1cc(=O)[nH]c(C2CC2)n1)c1ccc(S(F)(F)(F)(F)F)cc1` [Example 227, 2-cyclopropyl-6-oxo-N-{(1R)-1-[4-(pentafluoro-λ^6-sulfanyl)phenyl]ethyl}-1,6-dihydropyrimidine-4-carboxamide] showed a Ki [1, 5] of 12 nM and a Ki [2, 6] of 6.5 nM.
`Cc1nc(C(=O)N[C@H](C)c2ccc(OC(F)(F)F)cc2F)cc(=O)[nH]1` [Example 21, N-{(1R)-1-[2-fluoro-4-(trifluoromethoxy)phenyl]ethyl}-2-methyl-6-oxo-1,6-dihydropyrimidine-4-carboxamide] was tested, and the Ki [1, 5] was 46 nM and the Ki [2, 6] was 98 nM.
`Cc1nc(C(=O)N[C@@H](c2ccc(SC(F)(F)F)cc2)C(C)(C)C)cc(=O)[nH]1` [Example 58, (R)-N-(2,2-dimethyl-1-(4-((trifluoromethyl)thio)phenyl)propyl)-2-methyl-6-oxo-1,6-dihydropyrimidine-4-carboxamide] was tested, and the Ki [1, 3] was 2.5 nM and the Ki [2, 4] was 1.7 nM.
